The supplement of paper PMC13380429

Legend:
[1] = test system: A549-ACE2 infected with SARS-CoV-2; experiment: cell count relative to DMSO; higher = less toxic; conditions: 24 h
Caco-2 [2] = experiment: cell viability relative to DMSO; higher = less toxic; conditions: 72 h
Calu-3 [3] = experiment: as above; conditions: 72 h
HepG2 [4] = experiment: as above; conditions: 72 h
U2OS [5] = experiment: as above; conditions: 72 h
Vero E6 [6] = experiment: as above; conditions: 72 h
[7] = test system: A549-ACE2 infected with SARS-CoV-2; experiment: SARS-CoV-2 infection rate relative to DMSO; higher = more infection; conditions: 24 h
A549-ACE2 [8] = experiment: drug-induced phospholipidosis relative to tamoxifen; higher = more phospholipidosis
[9] = test system: A549-ACE2 infected with SARS-CoV-2; experiment: morphology score (similarity to uninfected cells); higher = more like uninfected cells; conditions: 24 h
Caco-2 [10] = experiment: relative viability EC50 (midpoint between 100% and the lowest measured viability); higher = less toxic; conditions: 72 h
Calu-3 [11] = experiment: as above; conditions: 72 h
Vero E6 [12] = experiment: as above; conditions: 72 h
Caco-2 [13] = experiment: drug sensitivity score (DSS) for viability; higher = more toxic; extreme values may be limits of the assay; conditions: 72 h
Calu-3 [14] = experiment: as above; conditions: 72 h
HepG2 [15] = experiment: as above; conditions: 72 h
U2OS [16] = experiment: as above; conditions: 72 h
Vero E6 [17] = experiment: as above; conditions: 72 h
A549-ACE2 [18] = experiment: phospholipidosis EC50; higher = less potent phospholipidosis inducer; conditions: 24 h

COc1cc(-c2cc(-c3cccc(O)c3)cnc2N)cc(OC)c1OC
Conditions	SARS-CoV-2 infection rate, [7] [%]	cell count, [1] [%]	cell viability, Caco-2 [2] [%]	cell viability, Calu-3 [3] [%]	cell viability, HepG2 [4] [%]	cell viability, U2OS [5] [%]	cell viability, Vero E6 [6] [%]	morphology score, [9]
1 nM	–	–	101	87.7	94.1	95.8	99.7	–
10 nM	–	–	103	93.6	94.6	93.7	103	–
100 nM	–	–	105	92.3	93.8	101	97.4	–
0.3 µM	101	100	–	–	–	–	–	0.01
1000 nM	–	–	101	87.6	98.4	91	106	–
3 µM	103	99	–	–	–	–	–	0.39
10 µM	93	105	–	–	–	–	–	0.31
10000 nM	–	–	79.4	84.6	74.8	64.5	99	–
30 µM	91	84	–	–	–	–	–	0.16

drug-induced phospholipidosis [%], A549-ACE2 [8]
Conditions	0.3 µM	0.833333 µM	3.33333 µM	6.66667 µM	10 µM	30 µM
24 h	4	3.08	6.21	12	15.9	47.9
48 h	3.78	1.52	1.5	4.27	9.43	62.2
72 h	4.57	0.15	0.0757	1.61	5.86	65.7

Conditions	drug sensitivity score	relative viability EC50 [µM]
Caco-2 [10]	–	> 10
Caco-2 [13]	0.6	–
Calu-3 [11]	–	> 10
Calu-3 [14]	0	–
HepG2 [15]	1.2	–
U2OS [16]	3.1	–
Vero E6 [12]	–	> 10
Vero E6 [17]	0	–

COc1cc(COc2cc(N)c(Cl)cc2C(=O)CCC2CCN(CCNS(C)(=O)=O)CC2)cc(OC)c1
Conditions	SARS-CoV-2 infection rate, [7] [%]	cell count, [1] [%]	cell viability, Caco-2 [2] [%]	cell viability, Calu-3 [3] [%]	cell viability, HepG2 [4] [%]	cell viability, U2OS [5] [%]	cell viability, Vero E6 [6] [%]	morphology score, [9]
1 nM	–	–	107	99	95	98.8	96.8	–
10 nM	–	–	102	106	102	96.2	97.8	–
0.1 µM	106	97	–	–	–	–	–	-0.18
100 nM	–	–	95.9	94.6	98.8	100	93.3	–
0.3 µM	102	102	–	–	–	–	–	-0.13
1 µM	93	105	–	–	–	–	–	0.08
1000 nM	–	–	110	105	92.5	101	96.1	–
3 µM	69	118	–	–	–	–	–	0.56
10000 nM	–	–	88.3	98.6	73.1	58.7	29.4	–

Conditions	drug sensitivity score	phospholipidosis EC50 [µM]	relative viability EC50 [µM]
A549-ACE2 [18]	–	10.8	–
Caco-2 [10]	–	–	> 10
Caco-2 [13]	0	–	–
Calu-3 [11]	–	–	> 10
Calu-3 [14]	0	–	–
HepG2 [15]	2.1	–	–
U2OS [16]	2	–	–
Vero E6 [12]	–	–	2.74
Vero E6 [17]	4.4	–	–

drug-induced phospholipidosis [%], A549-ACE2 [8]
Conditions	0.3 µM	0.833333 µM	3.33333 µM	6.66667 µM	10 µM	30 µM
24 h	7	-3.07	1.58	15.2	28.5	59.3
48 h	8.74	0.25	7.6	19.6	29.2	–
72 h	9.15	2.57	12.6	21.2	34.8	–
